According to ChEMBL document CHEMBL2440026, “Hit-to-lead optimization of 2-(1H-pyrazol-1-yl)-thiazole derivatives as a novel class of EP1 receptor antagonists” (Bioorg Med Chem Lett, 2013):
Each block holds one compound with its values, some of them ahead of it.

Tests used:
[1] = biological target: T1, Prostaglandin E2 receptor EP1 subtype (Homo sapiens, UniProt P34995); assay: Antagonist activity at human EP1 receptor by reporter gene assay
T1 sequence (P34995 whole entry): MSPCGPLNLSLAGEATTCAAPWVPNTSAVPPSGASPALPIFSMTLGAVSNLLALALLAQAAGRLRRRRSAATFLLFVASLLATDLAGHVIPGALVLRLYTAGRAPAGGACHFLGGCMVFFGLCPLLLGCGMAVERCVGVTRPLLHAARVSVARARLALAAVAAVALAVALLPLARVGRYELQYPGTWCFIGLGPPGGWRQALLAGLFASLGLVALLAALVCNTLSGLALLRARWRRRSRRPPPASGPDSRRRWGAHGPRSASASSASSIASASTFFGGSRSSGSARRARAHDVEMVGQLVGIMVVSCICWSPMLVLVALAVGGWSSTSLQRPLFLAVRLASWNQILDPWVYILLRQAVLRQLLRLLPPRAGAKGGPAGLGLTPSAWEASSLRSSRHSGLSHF

Cytochrome P450 2C9 = Cytochrome P450 2C9 (Homo sapiens, UniProt P11712); assay: Inhibition of CYP2C9 (unknown origin); type: ADME
Cytochrome P450 3A4 = Cytochrome P450 3A4 (Homo sapiens, UniProt P08684); assay: Inhibition of CYP3A4 (unknown origin); type: ADME
Cytochrome P450 1A2 = biological target: T2, Cytochrome P450 1A2 (Homo sapiens, UniProt P05177); assay: Inhibition of CYP1A2 (unknown origin); type: ADME
T2 sequence (P05177 whole entry): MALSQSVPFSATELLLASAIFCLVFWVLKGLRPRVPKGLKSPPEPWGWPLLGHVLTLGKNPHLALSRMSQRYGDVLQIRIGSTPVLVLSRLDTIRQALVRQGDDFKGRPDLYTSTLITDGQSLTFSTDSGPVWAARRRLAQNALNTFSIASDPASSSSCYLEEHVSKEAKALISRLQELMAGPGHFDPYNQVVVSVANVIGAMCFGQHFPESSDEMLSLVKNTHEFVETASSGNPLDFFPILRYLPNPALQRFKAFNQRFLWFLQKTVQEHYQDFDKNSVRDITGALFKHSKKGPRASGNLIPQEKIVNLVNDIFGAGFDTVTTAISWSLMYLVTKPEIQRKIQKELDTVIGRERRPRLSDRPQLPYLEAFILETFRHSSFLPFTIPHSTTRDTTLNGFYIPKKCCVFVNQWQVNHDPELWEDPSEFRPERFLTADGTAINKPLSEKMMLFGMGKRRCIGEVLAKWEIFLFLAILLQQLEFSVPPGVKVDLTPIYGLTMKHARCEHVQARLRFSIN

[2] = Intrinsic clearance in human […] by LC/MS/MS analysis; type: ADME, cell-free
Cytochrome P450 2D6 = Cytochrome P450 2D6 (Homo sapiens, UniProt P10635); assay: Inhibition of CYP2D6 (unknown origin); type: ADME
Cytochrome P450 2C19 = Cytochrome P450 2C19 (Homo sapiens, UniProt P33261); assay: Inhibition of CYP2C19 (unknown origin); type: ADME
[3] = biological target: T3, Prostaglandin E2 receptor EP1 subtype (Homo sapiens) (UniProt P34995); assay: Antagonist activity at human EP1 receptor at 1.1 uM by reporter gene assay
T3 sequence (whole entry): T1 sequence (P34995 whole entry)

[4] = biological target: T4, Prostaglandin E2 receptor EP4 subtype (Homo sapiens, UniProt P35408); assay: Binding affinity to human EP4 receptor
[5] = biological target: T1, Prostaglandin E2 receptor EP1 subtype; assay: Binding affinity to human EP1 receptor
[6] = biological target: T5, Prostaglandin E2 receptor EP3 subtype (Homo sapiens, UniProt P43115); assay: Binding affinity to human EP3 receptor
T5 sequence (P43115 whole entry): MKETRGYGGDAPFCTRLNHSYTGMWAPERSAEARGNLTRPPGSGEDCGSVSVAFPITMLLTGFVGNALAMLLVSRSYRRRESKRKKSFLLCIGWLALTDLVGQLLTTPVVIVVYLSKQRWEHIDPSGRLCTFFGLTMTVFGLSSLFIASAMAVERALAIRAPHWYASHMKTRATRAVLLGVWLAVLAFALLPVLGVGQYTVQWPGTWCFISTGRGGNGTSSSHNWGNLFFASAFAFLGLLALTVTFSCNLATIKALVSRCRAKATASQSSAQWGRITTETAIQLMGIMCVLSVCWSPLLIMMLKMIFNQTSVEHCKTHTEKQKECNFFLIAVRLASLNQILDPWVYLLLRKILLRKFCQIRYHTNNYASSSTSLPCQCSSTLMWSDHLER

Salmonella typhimurium [7] = assay: Genotoxicity in Salmonella typhimurium TA98; type: toxicity, organism-based; details: salmonella enterica subsp. enterica serovar typhimurium
[8] = Apparent permeability from apical to basolateral side in MDCK cells; type: ADME, cell-based, Canis lupus familiaris; details: dog
[9] = biological target: T1, Prostaglandin E2 receptor EP1 subtype; assay: Antagonist activity at human EP1 receptor by intracellular Ca2+ release assay; type: functional, cell-based
Salmonella typhimurium [10] = assay: Genotoxicity in Salmonella typhimurium TA100; type: toxicity, organism-based; details: salmonella enterica subsp. enterica serovar typhimurium
[11] = biological target: T6, Prostaglandin E2 receptor EP2 subtype (Homo sapiens, UniProt P43116); assay: Binding affinity to human EP2 receptor
[12] = Intrinsic clearance in rat […] by LC/MS/MS analysis; type: ADME, cell-free
[13] = Oral bioavailability in Sprague-Dawley rat at 10 mg/kg; type: ADME, organism-based; details: in vivo
[14] = biological target: T5, Prostaglandin E2 receptor EP3 subtype; assay: Antagonist activity at EP3 receptor (unknown origin)
[15] = biological target: T6, Prostaglandin E2 receptor EP2 subtype; assay: Antagonist activity at EP2 receptor (unknown origin)
Homo sapiens [16] = species: Homo sapiens; assay: Selectivity ratio of IC50 for EP4 receptor (unknown origin) to IC50 for human EP1 receptor
[17] = biological target: T4, Prostaglandin E2 receptor EP4 subtype; assay: Antagonist activity at EP4 receptor (unknown origin)
Homo sapiens [18] = species: Homo sapiens; assay: Selectivity ratio of IC50 for EP2 receptor (unknown origin) to IC50 for human EP1 receptor
Homo sapiens [19] = species: Homo sapiens; assay: Selectivity ratio of IC50 for EP3 receptor (unknown origin) to IC50 for human EP1 receptor

Cytochrome P450 2D6, sequence (P10635 whole entry): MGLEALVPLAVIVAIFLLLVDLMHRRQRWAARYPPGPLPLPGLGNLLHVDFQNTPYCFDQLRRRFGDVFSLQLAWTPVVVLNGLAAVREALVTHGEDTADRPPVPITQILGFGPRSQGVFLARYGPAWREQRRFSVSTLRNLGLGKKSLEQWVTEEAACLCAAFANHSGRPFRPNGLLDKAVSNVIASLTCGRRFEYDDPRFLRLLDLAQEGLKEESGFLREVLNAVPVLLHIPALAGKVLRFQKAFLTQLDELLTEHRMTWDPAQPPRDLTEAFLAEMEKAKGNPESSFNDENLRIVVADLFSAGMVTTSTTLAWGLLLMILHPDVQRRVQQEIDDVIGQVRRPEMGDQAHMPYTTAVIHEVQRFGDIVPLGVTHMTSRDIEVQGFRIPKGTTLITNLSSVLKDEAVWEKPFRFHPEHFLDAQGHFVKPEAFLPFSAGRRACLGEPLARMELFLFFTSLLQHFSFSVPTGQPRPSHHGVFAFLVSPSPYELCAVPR
Cytochrome P450 3A4, sequence (P08684 whole entry): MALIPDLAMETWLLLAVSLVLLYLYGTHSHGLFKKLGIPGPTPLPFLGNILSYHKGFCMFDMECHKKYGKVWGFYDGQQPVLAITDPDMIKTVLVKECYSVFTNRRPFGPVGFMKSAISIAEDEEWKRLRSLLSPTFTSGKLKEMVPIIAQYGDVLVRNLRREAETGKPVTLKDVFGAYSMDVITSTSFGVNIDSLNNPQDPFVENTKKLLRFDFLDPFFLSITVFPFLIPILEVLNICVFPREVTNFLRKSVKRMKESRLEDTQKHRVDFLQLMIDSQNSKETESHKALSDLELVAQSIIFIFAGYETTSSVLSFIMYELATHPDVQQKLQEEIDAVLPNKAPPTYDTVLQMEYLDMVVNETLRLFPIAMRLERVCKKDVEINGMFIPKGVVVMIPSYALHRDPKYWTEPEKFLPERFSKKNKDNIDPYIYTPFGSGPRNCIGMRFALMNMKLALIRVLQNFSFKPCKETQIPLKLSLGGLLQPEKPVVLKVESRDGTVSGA
Cytochrome P450 2C9, sequence (P11712 whole entry): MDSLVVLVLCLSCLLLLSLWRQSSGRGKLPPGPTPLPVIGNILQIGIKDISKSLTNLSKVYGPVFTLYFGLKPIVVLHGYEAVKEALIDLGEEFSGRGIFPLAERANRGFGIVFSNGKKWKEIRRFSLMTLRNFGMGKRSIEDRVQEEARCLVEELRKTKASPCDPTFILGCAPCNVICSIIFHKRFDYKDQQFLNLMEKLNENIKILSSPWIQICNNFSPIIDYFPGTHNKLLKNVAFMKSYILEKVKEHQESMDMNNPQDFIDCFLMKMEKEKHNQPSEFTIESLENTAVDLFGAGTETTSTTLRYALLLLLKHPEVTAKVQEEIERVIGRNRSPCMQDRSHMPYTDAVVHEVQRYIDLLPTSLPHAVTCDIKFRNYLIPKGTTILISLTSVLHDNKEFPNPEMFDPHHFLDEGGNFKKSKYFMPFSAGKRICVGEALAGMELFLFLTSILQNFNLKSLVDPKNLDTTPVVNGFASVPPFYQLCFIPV
T4 sequence (P35408 whole entry): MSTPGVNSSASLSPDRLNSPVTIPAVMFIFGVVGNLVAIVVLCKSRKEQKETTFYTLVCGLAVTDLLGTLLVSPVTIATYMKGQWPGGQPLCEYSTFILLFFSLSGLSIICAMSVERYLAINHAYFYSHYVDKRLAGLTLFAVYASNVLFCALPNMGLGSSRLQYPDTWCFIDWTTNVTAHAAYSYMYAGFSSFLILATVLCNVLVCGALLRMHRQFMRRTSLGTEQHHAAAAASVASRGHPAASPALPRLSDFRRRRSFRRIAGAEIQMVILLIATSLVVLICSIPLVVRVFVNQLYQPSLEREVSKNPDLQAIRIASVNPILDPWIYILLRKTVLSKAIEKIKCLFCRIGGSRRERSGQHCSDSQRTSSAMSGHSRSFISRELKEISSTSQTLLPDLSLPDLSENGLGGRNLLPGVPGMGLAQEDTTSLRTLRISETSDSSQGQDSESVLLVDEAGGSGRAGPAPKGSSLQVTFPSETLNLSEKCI
T6 sequence (P43116 whole entry): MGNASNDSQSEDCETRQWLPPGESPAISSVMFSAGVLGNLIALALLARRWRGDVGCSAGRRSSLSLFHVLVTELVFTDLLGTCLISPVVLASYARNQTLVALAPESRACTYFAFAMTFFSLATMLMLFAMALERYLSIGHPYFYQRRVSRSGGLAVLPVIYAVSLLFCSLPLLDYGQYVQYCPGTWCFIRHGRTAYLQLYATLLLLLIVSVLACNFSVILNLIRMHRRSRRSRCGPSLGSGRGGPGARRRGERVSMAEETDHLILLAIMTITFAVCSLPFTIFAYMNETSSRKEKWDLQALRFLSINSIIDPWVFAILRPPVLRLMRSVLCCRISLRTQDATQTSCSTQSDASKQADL
Cytochrome P450 2C19, sequence (P33261 whole entry): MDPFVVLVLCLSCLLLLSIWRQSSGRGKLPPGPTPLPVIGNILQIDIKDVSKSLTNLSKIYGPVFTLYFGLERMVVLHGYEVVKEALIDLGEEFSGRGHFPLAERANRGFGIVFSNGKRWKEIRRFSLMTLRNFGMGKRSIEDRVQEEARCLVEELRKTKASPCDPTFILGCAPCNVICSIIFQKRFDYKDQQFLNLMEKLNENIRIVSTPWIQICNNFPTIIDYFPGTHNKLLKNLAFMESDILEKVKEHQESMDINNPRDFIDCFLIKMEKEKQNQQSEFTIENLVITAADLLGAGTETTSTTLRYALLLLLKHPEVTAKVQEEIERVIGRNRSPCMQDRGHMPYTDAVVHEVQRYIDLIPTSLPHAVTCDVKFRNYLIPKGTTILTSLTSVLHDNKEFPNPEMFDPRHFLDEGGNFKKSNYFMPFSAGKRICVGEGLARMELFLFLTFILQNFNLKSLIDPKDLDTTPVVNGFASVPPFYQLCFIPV

- IC50 [1]: 3 µM
SMILES: Cc1ccc(-c2cc(C(F)(F)F)n(-c3nc(C(=O)O)cs3)n2)cc1

- IC50 (Cytochrome P450 2C9): > 10 µM
- IC50 (Cytochrome P450 3A4): > 10 µM
- IC50 [1]: 0.32 µM
- IC50 (Cytochrome P450 1A2): > 10 µM
- CLint scaled [2]: 28 mL/min/kg
- IC50 (Cytochrome P450 2D6): > 10 µM
- IC50 (Cytochrome P450 2C19): > 10 µM
SMILES: O=C(O)c1csc(-n2nc(-c3ccccc3)cc2C(F)(F)F)n1

- IC50 [1]: 0.32 µM
SMILES: O=C(O)c1csc(-n2nc(-c3ccc(O)cc3)cc2C(F)(F)F)n1

- Ki [4]: > 2.7 µM
- IC50 (Cytochrome P450 2C9): > 10 µM
- IC50 (Cytochrome P450 3A4): > 10 µM
- Ki [5]: 0.53 µM
- IC50 [1]: 0.18 µM
- Ki [6]: > 5 µM
- Papp A→B [8]: 22.8 ×10⁻⁶ cm/s
- IC50 [9]: 0.8 µM
- IC50 (Cytochrome P450 1A2): > 10 µM
- CLint scaled [2]: 500 mL/min/kg
- Ki [11]: > 8 µM
- IC50 (Cytochrome P450 2D6): > 10 µM
- IC50 (Cytochrome P450 2C19): > 10 µM
- CLint scaled [12]: 130 mL/min/kg
SMILES: O=C(O)c1csc(-n2nc(-c3ccccc3O)cc2C(F)(F)F)n1
- Activity (Salmonella typhimurium [7]): Non-toxic
- Activity (Salmonella typhimurium [10]): Non-toxic

- IC50 [1]: 0.58 µM
SMILES: O=C(O)c1csc(-n2nc(-c3cccc(O)c3)cc2C(F)(F)F)n1

- IC50 [1]: 0.43 µM
SMILES: COc1ccc(-c2cc(C(F)(F)F)n(-c3nc(C(=O)O)cs3)n2)cc1

Second part, the compound before the results:

SMILES: Cc1c(-c2ccccc2)nn(-c2nc(C(=O)O)cs2)c1C(F)(F)F
- IC50 [1]: 0.084 µM

SMILES: Cn1c(-c2ccccc2)nc(-c2nc(C(=O)O)cs2)c1-c1ccccc1
- IC50 [1]: 0.5 µM

SMILES: CC(C)(C)c1cc(-c2ccccc2)nn1-c1nc(C(=O)O)cs1
- inhibition [3]: 1%

SMILES: Cc1c(-c2ccccc2)nc(-c2nc(C(=O)O)cs2)n1-c1ccccc1
- inhibition [3]: 7%

SMILES: O=C(O)c1csc(-n2nc(-c3ccccc3)cc2-c2ccccc2)n1
- inhibition [3]: 31%

SMILES: Cc1cc(-c2ccccc2)nn1-c1nc(C(=O)O)cs1
- inhibition [3]: 14%

SMILES: Cc1c(-c2ccccc2)nn(-c2nc(C(=O)O)cs2)c1-c1ccccc1
- Ki [4]: > 2.7 µM
- IC50 (Cytochrome P450 2C9): > 10 µM
- IC50 (Cytochrome P450 3A4): > 10 µM
- bioavailability [13]: 32%
- Ki [5]: 0.29 µM
- IC50 [1]: 0.05 µM
- Ki [6]: > 5 µM
- Activity (Salmonella typhimurium [7]): Non-toxic
- Papp A→B [8]: 51.6 ×10⁻⁶ cm/s
- IC50 [9]: 0.5 µM
- IC50 (Cytochrome P450 1A2): 7.93 µM
- CLint scaled [2]: 35 mL/min/kg
- Activity (Salmonella typhimurium [10]): Non-toxic
- Ki [11]: > 8 µM
- IC50 (Cytochrome P450 2D6): > 10 µM
- IC50 (Cytochrome P450 2C19): 4.71 µM
- CLint scaled [12]: 15 mL/min/kg

SMILES: COc1ccc(-c2cc(C(F)(F)F)nn2-c2nc(C(=O)O)cs2)cc1
- Ki [4]: > 2.7 µM
- IC50 [14]: > 5 µM
- IC50 (Cytochrome P450 2C9): > 10 µM
- IC50 (Cytochrome P450 3A4): > 10 µM
- IC50 [15]: > 8 µM
- Ratio IC50 (Homo sapiens [16]): 3
- IC50 [17]: > 2.7 µM
- Ki [5]: 8.7 µM
- Ratio IC50 (Homo sapiens [18]): 3
- IC50 [1]: 1 µM
- Ki [6]: > 5 µM
- Activity (Salmonella typhimurium [7]): Non-toxic
- Ratio IC50 (Homo sapiens [19]): 3
- IC50 [9]: 5.8 µM
- IC50 (Cytochrome P450 1A2): > 10 µM
- CLint scaled [2]: 187 mL/min/kg
- Activity (Salmonella typhimurium [10]): Non-toxic
- Ki [11]: > 8 µM
- IC50 (Cytochrome P450 2D6): > 10 µM
- IC50 (Cytochrome P450 2C19): 7.14 µM
- CLint scaled [12]: 195 mL/min/kg
